ChEMBL document CHEMBL4251622, “Design, synthesis, and biological evaluation of polo-like kinase 1/eukaryotic elongation factor 2 kinase (PLK1/EEF2K) dual inhibitors for regulating breast cancer cells apoptosis and autophagy” (Eur J Med Chem, 2018)
Active and inactive are the calls of the source. No cut-off for these calls is given here.

Experiments:
BT-483 [1] = test: Induction of apoptosis in human BT-483 cells assessed as live cells at 10 uM by Annexin V-FITC/propidium iodide staining based flow cytometry (reference value: 87.5%); format: functional
[2] = biological target: Aurora kinase B (Homo sapiens) (UniProt Q96GD4); test: Inhibition of wild-type human partial length AURKB (D25 to A303 residues) expressed in mammalian expression system assessed as residual activity at 1 uM by Kinomescan method relative to control
[3] = biological target: Serine/threonine-protein kinase pim-1 (Homo sapiens) (UniProt P11309); test: Inhibition of wild-type human partial length PIM1 (A15 to K313 residues) expressed in bacterial expression system assessed as residual activity at 1 uM by Kinomescan method relative to control
[4] = biological target: Dual specificity mitogen-activated protein kinase kinase 2 (Homo sapiens) (UniProt P36507); test: Inhibition of wild-type human full length MEK2 (M1 to V400 residues) expressed in mammalian expression system assessed as residual activity at 1 uM by Kinomescan method relative to control
[5] = biological target: Platelet-derived growth factor receptor beta (Homo sapiens) (UniProt P09619); test: Inhibition of wild-type human partial length PDGFRB (V582 to Y1009 residues) expressed in bacterial expression system assessed as residual activity at 1 uM by Kinomescan method relative to control
[6] = biological target: Proto-oncogene tyrosine-protein kinase Src (Homo sapiens) (UniProt P12931); test: Inhibition of wild-type human partial length SRC (L240 to L536 residues) expressed in bacterial expression system assessed as residual activity at 1 uM by Kinomescan method relative to control
BT-483 [7] = test: Induction of apoptosis in human BT-483 cells assessed as early apoptotic cells at 10 uM by Annexin V-FITC/propidium iodide staining based flow cytometry (reference value: 2.01%); format: functional
[8] = biological target: Serine/threonine-protein kinase pim-3 (Homo sapiens) (UniProt Q86V86); test: Inhibition of wild-type human partial length PIM3 (G16 to A317 residues) expressed in bacterial expression system assessed as residual activity at 1 uM by Kinomescan method relative to control
[9] = biological target: Mitogen-activated protein kinase kinase kinase 9 (Homo sapiens) (UniProt P80192); test: Inhibition of wild-type human partial length MLK1 (V88 to W426 residues) expressed in bacterial expression system assessed as residual activity at 1 uM by Kinomescan method relative to control
BT-474 = test: Cytotoxicity against human BT474 cells after 24 hrs by MTT assay; format: functional, cell-based
[10] = biological target: Epidermal growth factor receptor (Homo sapiens) (UniProt P00533); test: Inhibition of wild-type human partial length EGFR (R669 to V1011 residues) expressed in bacterial expression system assessed as residual activity at 1 uM by Kinomescan method relative to control
[11] = biological target: Fibroblast growth factor receptor 1 (Homo sapiens) (UniProt P11362); test: Inhibition of wild-type human partial length FGFR1 (P357 to V669 residues) expressed in bacterial expression system assessed as residual activity at 1 uM by Kinomescan method relative to control
[12] = biological target: Vascular endothelial growth factor receptor 2 (Homo sapiens) (UniProt P35968); test: Inhibition of wild-type human partial length VEGFR2 (R787 to P1253 residues) expressed in mammalian expression system assessed as residual activity at 1 uM by Kinomescan method relative to control
BT-483 [13] = test: Induction of apoptosis in human BT-483 cells assessed as apoptotic nuclear fragment formation at 5 uM after 24 hrs by fluorescence microscopic method; format: functional, cell-based
[14] = system: Serine/threonine-protein kinase B-raf (Homo sapiens), P15056 [V600E]; test: Inhibition of human partial length BRAF V600E mutant (S429 to E741 residues) expressed in mammalian expression system assessed as residual activity at 1 uM by Kinomescan method relative to control
[15] = system: Tyrosine-protein kinase ABL1 (Homo sapiens), P00519 [T315I]; test: Inhibition of human phosphorylated ABL1 T315I mutant (S229 to K512 residues) expressed in mammalian expression system assessed as residual activity at 1 uM by Kinomescan method relative to control
[16] = biological target: Mitogen-activated protein kinase kinase kinase 4 (Homo sapiens) (UniProt Q9Y6R4); test: Inhibition of wild-type human partial length MAP3K4 (G1319 to E1608 residues) expressed in bacterial expression system assessed as residual activity at 1 uM by Kinomescan method relative to control
[17] = biological target: Eukaryotic elongation factor 2 kinase (Homo sapiens, UniProt O00418); test: Inhibition of GST-tagged EEF2K (unknown origin) using biotinylated EEF2 peptide substrate by HTRF assay
[18] = biological target: Receptor tyrosine-protein kinase erbB-4 (Homo sapiens) (UniProt Q15303); test: Inhibition of wild-type human partial length ERBB4 (L690 to K994 residues) expressed in bacterial expression system assessed as residual activity at 1 uM by Kinomescan method relative to control
BT-483 [19] = test: Cytotoxicity against human BT-483 cells after 24 hrs by MTT assay; format: functional, cell-based; conditions: BT-483, 24 h
[20] = biological target: MAP/microtubule affinity-regulating kinase 3 (Homo sapiens) (UniProt P27448); test: Inhibition of wild-type human full length MARK3 (M1 to L729 residues) expressed in bacterial expression system assessed as residual activity at 1 uM by Kinomescan method relative to control
BT-483 [21] = test: Induction of autophagy in human BT-483 cells assessed as activation of LC3 at 5 to 10 uM by Western blot analysis; format: functional, cell-based
[22] = biological target: RAC-beta serine/threonine-protein kinase (Homo sapiens) (UniProt P31751); test: Inhibition of wild-type human partial length AKT2 expressed in bacterial expression system assessed as residual activity at 1 uM by Kinomescan method relative to control
BT-483 [23] = test: Upregulation of cytochrome-c protein expression in human BT-483 cells at 5 to 10 uM by Western blot analysis; format: functional, cell-based
[24] = biological target: Cyclin-dependent kinase 2 (Homo sapiens) (UniProt P24941); test: Inhibition of wild-type human full length CDK2 (M1 to L298 residues) expressed in bacterial expression system assessed as residual activity at 1 uM by Kinomescan method relative to control
[25] = biological target: Serine/threonine-protein kinase PLK1 (Homo sapiens, UniProt P53350); test: Inhibition of full length human PLK1 using casein as substrate after 40 mins in presence of [gamma-33P]-ATP by radiometric assay
[26] = biological target: Serine/threonine-protein kinase RIO2 (Homo sapiens) (UniProt Q9BVS4); test: Inhibition of wild-type human partial length RIOK2 (M1 to D313 residues) expressed in mammalian expression system assessed as residual activity at 1 uM by Kinomescan method relative to control
[27] = biological target: SRSF protein kinase 3 (Homo sapiens) (UniProt Q9UPE1); test: Inhibition of wild-type human partial length SRPK3 (P41 to P567 residues) expressed in bacterial expression system assessed as residual activity at 1 uM by Kinomescan method relative to control
[28] = biological target: Serine/threonine-protein kinase 32C (Homo sapiens) (UniProt Q86UX6); test: Inhibition of wild-type human partial length YANK3 (M68 to G486 residues) expressed in bacterial expression system assessed as residual activity at 1 uM by Kinomescan method relative to control

## CCNc1cc(-c2ccc(NC(=O)Nc3cccc(Cl)c3)cc2C(F)(F)F)ccn1
BT-483 [1]
  Activity: 78.2%
[2]
  Activity: 95%
[3]
  Activity: 66%
[4]
  Activity: 67%
[5]
  Activity: 83%
[6]
  Activity: 93%
BT-483 [7]
  Activity: 8.72%
[8]
  Activity: 100%
[9]
  Activity: 67%
BT-474
  Activity: Active
[10]
  Activity: 90%
[11]
  Activity: 91%
[12]
  Activity: 60%
BT-483 [13]
  Activity: Active
[14]
  Activity: 88%
[15]
  Activity: 96%
[16]
  Activity: 85%
[17]
  IC50: 762 nM
[18]
  Activity: 92%
BT-483 [19]
  IC50: 13300 nM
[20]
  Activity: 90%
BT-483 [21]
  Activity: Active
[22]
  Activity: 80%
BT-483 [23]
  Activity: Active
[24]
  Activity: 98%
[25]
  IC50: 85 nM
[26]
  Activity: 67%
[27]
  Activity: 98%
[28]
  Activity: 73%
